Assay results from ChEMBL document CHEMBL1201862, “PubChem BioAssay data set” (2004).
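Results reflect a 48-hour exposure of cells in 96-well plates to compound at five concentrations. GI50 = concentration required for 50% inhibition of growth.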 Calls of active or inactive are those of the source. Cut-off read from the data, not from the text of the source: active = GI50 up to about 1.1 µM and inactive = higher.

Assays:
Test in all cases: NCI-60 cell line screen, 48 h
M14 = test system: M14
UACC-62 = test system: UACC-62
ACHN = test system: ACHN
CCRF-CEM = test system: CCRF-CEM
UACC-257 = test system: UACC-257
UO-31 = test system: UO-31
SN12C = test system: SN12C
HOP-62 = test system: HOP-62
NCI-H226 = test system: NCI-H226
NCI-H460 = test system: NCI-H460
RPMI-8226 = test system: RPMI-8226
KM12 = test system: KM12
IGROV-1 = test system: IGROV-1
TK-10 = test system: TK-10
OVCAR-4 = test system: OVCAR-4
786-0 = test system: 786-0
OVCAR-3 = test system: OVCAR-3

Measured: GI50

O=C(CCN(CCO)CCO)Nc1ccc2c(c1)C(=O)c1ccc(NC(=O)CCN(CCO)CCO)cc1C2=O
inactive: M14 12.4 µM | UACC-62 3.44 µM | ACHN 9.29 µM | CCRF-CEM 6.52 µM | UACC-257 24.1 µM | UO-31 10.4 µM | SN12C 12.8 µM | HOP-62 29.4 µM | NCI-H226 6.95 µM | NCI-H460 10.8 µM | RPMI-8226 14.6 µM | KM12 14.4 µM | IGROV-1 13.7 µM | TK-10 13.4 µM | OVCAR-4 20 µM | 786-0 4.62 µM | OVCAR-3 16.1 µM

CC12CCC(=O)N1c1ccc([N+](=O)[O-])cc1N2 (stereo unspecified)
inactive: M14 > 100 µM | UACC-62 > 100 µM | ACHN > 100 µM | CCRF-CEM > 100 µM | UACC-257 > 100 µM | UO-31 > 100 µM | SN12C > 100 µM | HOP-62 > 100 µM | NCI-H226 42.3 µM | RPMI-8226 > 100 µM | KM12 > 100 µM | IGROV-1 > 100 µM | OVCAR-4 > 100 µM | 786-0 > 100 µM | OVCAR-3 > 100 µM

O=C(CCC(=O)C(C(=O)c1ccccc1)c1ccccc1)Nc1cccc(C(F)(F)F)c1 (stereo unspecified)
inactive: M14 > 100 µM | UACC-62 > 100 µM | ACHN > 100 µM | CCRF-CEM > 100 µM | UACC-257 > 100 µM | UO-31 > 100 µM | SN12C > 100 µM | NCI-H226 > 100 µM | NCI-H460 > 100 µM | RPMI-8226 > 100 µM | KM12 > 100 µM | IGROV-1 > 100 µM | TK-10 > 100 µM | OVCAR-4 > 100 µM | 786-0 > 100 µM | OVCAR-3 > 100 µM

CCCN(CCC)c1c([N+](=O)[O-])cc(C(N)=O)cc1[N+](=O)[O-]
inactive: M14 > 100 µM | ACHN > 100 µM | CCRF-CEM 39.1 µM | UACC-257 49.4 µM | UO-31 65.5 µM | SN12C > 100 µM | NCI-H226 > 100 µM | NCI-H460 68.2 µM | RPMI-8226 > 100 µM | KM12 > 100 µM | IGROV-1 > 100 µM | TK-10 > 100 µM | OVCAR-4 > 100 µM | 786-0 > 100 µM | OVCAR-3 78 µM

COCOCc1cc(OCc2ccccc2)c(OC)cc1Br
inactive: UACC-62 71.9 µM | ACHN 82.6 µM | CCRF-CEM > 100 µM | UACC-257 > 100 µM | SN12C > 100 µM | HOP-62 > 100 µM | NCI-H460 > 100 µM | RPMI-8226 47 µM | KM12 > 100 µM | IGROV-1 > 100 µM | TK-10 > 100 µM | OVCAR-4 > 100 µM | 786-0 > 100 µM | OVCAR-3 > 100 µM

COc1ccc(-c2onc(-c3ccc([N+](=O)[O-])cc3)c2C2=NCCN2)cc1
inactive: M14 > 100 µM | UACC-62 > 100 µM | ACHN 38.1 µM | CCRF-CEM > 100 µM | UACC-257 18.5 µM | UO-31 29.6 µM | SN12C 67.5 µM | HOP-62 > 100 µM | NCI-H226 95.1 µM | NCI-H460 45.9 µM | RPMI-8226 > 100 µM | KM12 > 100 µM | IGROV-1 > 100 µM | OVCAR-4 60.1 µM | 786-0 17 µM | OVCAR-3 > 100 µM

O=c1[nH]c2c(c3ccccc13)CCc1ccccc1-2
inactive: UACC-62 > 10 µM | ACHN > 100 µM | UACC-257 > 100 µM | UO-31 > 100 µM | SN12C > 100 µM | NCI-H226 > 100 µM | RPMI-8226 > 100 µM | KM12 > 100 µM | IGROV-1 > 100 µM | TK-10 > 100 µM | OVCAR-4 > 100 µM | 786-0 > 100 µM | OVCAR-3 > 100 µM
